According to patent US20160030510A1, “METHODS OF TREATING ALZHEIMER'S DISEASE AND OTHER TAUOPATHIES WITH INHIBITORS OF MICROTUBULE AFFINITY REGULATING KINASE” (The Board of Trustees of the Leland Stanford Junior …, priority 2012, published 2016):
Where a SMILES comes first, the peptide text is derived from it. Where no end group is shown, it is not given here.

Key:
Human MARK4 = target: T1, Human MARK4 (Homo sapiens, UniProt Q96L34); assay: In vitro kinase assay of MARK4 phosphorylating tau (Western blot); format: biochemical; settings: human MARK4 and tau affinity-purified from HEK293 cells, FIG. 7
T1 construct: made in house; host or cells: HEK293 cells
T1 sequence (Q96L34 1-752): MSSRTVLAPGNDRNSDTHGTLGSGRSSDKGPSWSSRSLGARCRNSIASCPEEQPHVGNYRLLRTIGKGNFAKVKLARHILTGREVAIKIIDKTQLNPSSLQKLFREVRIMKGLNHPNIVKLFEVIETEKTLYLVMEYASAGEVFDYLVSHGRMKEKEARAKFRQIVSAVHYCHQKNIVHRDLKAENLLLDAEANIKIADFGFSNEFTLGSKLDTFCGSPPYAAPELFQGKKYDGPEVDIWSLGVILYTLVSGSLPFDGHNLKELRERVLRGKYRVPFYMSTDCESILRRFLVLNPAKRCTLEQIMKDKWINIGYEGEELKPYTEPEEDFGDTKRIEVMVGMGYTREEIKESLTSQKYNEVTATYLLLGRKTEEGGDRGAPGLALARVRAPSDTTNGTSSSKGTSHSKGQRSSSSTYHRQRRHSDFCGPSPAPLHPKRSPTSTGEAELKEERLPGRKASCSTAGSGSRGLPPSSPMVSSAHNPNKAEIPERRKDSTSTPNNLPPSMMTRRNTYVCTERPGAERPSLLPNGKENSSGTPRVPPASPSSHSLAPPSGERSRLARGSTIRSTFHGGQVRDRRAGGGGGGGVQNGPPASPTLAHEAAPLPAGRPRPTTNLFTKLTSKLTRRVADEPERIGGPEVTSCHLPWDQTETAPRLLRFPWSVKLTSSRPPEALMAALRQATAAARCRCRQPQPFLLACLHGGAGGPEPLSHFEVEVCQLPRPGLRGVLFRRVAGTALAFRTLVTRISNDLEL
Text: Both human MARK4 and tau proteins were expressed in HEK293 cells and affinity-purified by immunoprecipitation. After in vitro kinase reaction in the presence or absence of the peptides, the reaction mixtures were separated on SDS-PAGE to separate the proteins, and the levels of total tau and phospho-tau generated by MARK4 were detected by Western blot analysis. The TAT peptide was used as a negative control. Note the inhibition of MARK4-mediated tau phosphorylation by both TAT-MKI and MKI-TAT.
We next tested the ability of the TAT-MKI and MKI-TAT fusions to inhibit the activity of MARK4 kinase in phosphorylating the tau protein (FIG. 7). Human MARK4 and tau proteins were expressed in HEK293 cells and affinity-purified by immunoprecipitation. In vitro kinase reactions were performed in the presence or absence of the TAT-MKI and MKI-TAT fusion peptides and the levels of total tau and phospho-tau generated by MARK4 were detected by Western blot analysis. The TAT peptide was used as a negative control. Both the TAT-MKI and MKI-TAT fusion peptides inhibited MARK4-mediated tau phosphorylation in vitro.

Aβ-induced spine loss = settings: Zempel et al. (2010); cited from earlier work
rat hippocampal neurons [1] = format: cell-based; settings: FIG. 4D
[2] = tested on: PAR-1/MARK-mediated tau phosphorylation; assay: Tau phosphorylation in transfected rat hippocampal neurons (western blot / immunostaining with 12E8 and PHF-1 antibodies); format: cell-based
Protocol: (§1) Robust 12E8 staining (gray) is seen in EGFP-transfected control neurons. Total tau is stained with anti-HA (gray). […] EGFP-transfected neurons served as control. […] Data quantification is shown in (3E) (***P<0.001 in Student's t-test). Scale bar, 10 μm.
(§2) Rat E18 hippocampal neuron primary cultures were prepared as described (Yu et al. (2011) Hum. Mol. Genet. 20:3227-3240, herein incorporated by reference in its entirety). Cultured neurons, grown for 10-days in vitro in 12-well plates, were transfected with 2-3 μg of plasmid per well using a CalPhos Mammalian Transfection Kit (Clontech, San Jose, Calif., USA). Fluorescence immunocytochemistry was performed 3 days after transfection. Preparation and concentration of lentiviral particles were performed as described before (Yu et al., supra). Viral transfection of hippocampal neurons was carried out at 10 days after in vitro culture. The next day, the culture medium was replaced with 50% fresh medium and 50% conditioned medium.
EGFP-tagged PSD-95-WT in the FHUGW lentivirus vector was described before (Xu et al. (2008) Neuron 57:248-262). The S561A mutation was introduced by site-directed mutagenesis. Tau S2A mutations were introduced as described before (Nishimura et al. Cell, 116:671-682), and subcloned into FHUGW with a C-terminal HA tag. EGFP- and HA-tagged human MARK4 constructs were obtained from Dr. Gerard Drewes. MKI cDNA was obtained from Dr. C. […]
(§3) Chicken anti-EGFP (1:4000) and rabbit anti-HA (1:3000) antibodies were purchased from Abcam (Cambridge, Mass., USA); mouse anti-Myc (1:1500, 4A6) and mouse anti-PSD-95 (1:300) from Millipore (Billerica, Mass., USA); rabbit anti-GluR1 (1:200) from Calbiochem (San Diego, Calif., USA) and rabbit anti-Synapsin I (1:1000) from Sigma (St Louis, Mo., USA). […] Dendritic spine number and clusters of PSD-95, GluR1 or Synapsin I were manually counted as the number along a 10 μm length of dendrite and presented as mean±SEM. […] Between 15 and 30 dendritic processes were selected for quantification. Data were analyzed while blind to the conditions.

[3] = tested on: AMP-activated kinase (AMPK); assay: AMPK kinase activity in neurons detected with phospho-acetyl-CoA carboxylase (Ser79) antibody; format: cell-based, rat; settings: specificity control; pACC antibody, FIG. 3C
rat hippocampal neurons [4] = assay: MARK4 overexpression-induced synaptic and spine toxicity in hippocampal neurons; format: cell-based
Protocol: as §1, §2
Chicken anti-EGFP (1:4000) and rabbit anti-HA (1:3000) antibodies were purchased from Abcam (Cambridge, Mass., USA); mouse anti-Myc (1:1500, 4A6) and mouse anti-PSD-95 (1:300) from Millipore (Billerica, Mass., USA); rabbit anti-GluR1 (1:200) from Calbiochem (San Diego, Calif., USA) and rabbit anti-Synapsin I (1:1000) from Sigma (St Louis, Mo., USA). Immunofluorescence analysis was done essentially as described before (Yu et al., supra). Confocal images were obtained using a Leica TCS SP5 confocal microscope or Zeiss inverted LSM510 confocal microscope (Carl Zeiss, Inc.) with 63× NA 1.4 objectives. Processed confocal images were used to make 2D projections. Dendritic spine number and clusters of PSD-95, GluR1 or Synapsin I were manually counted as the number along a 10 μm length of dendrite and presented as mean±SEM. Each experiment was done at least three times and six to nine neurons were randomly selected for analysis each time. Between 15 and 30 dendritic processes were selected for quantification. Data were analyzed while blind to the conditions.

rat hippocampal neurons [5] = assay: Aβ oligomer-induced synaptic and dendritic spine defects in hippocampal neurons (morphology); format: cell-based; settings: 5 μM Aβ oligomer-treated neurons
Protocol: FIGS. 4A-4C show the effects of MKI-EGFP on Aβ-induced loss of PSD-95 (FIG. 4A) and GluR1 (FIG. 4B) clusters and spine numbers. Neurons transfected with MKI-EGFP or EGFP were treated with Aβ oligomer or mock-treated with solvent as control. The cytoplasmic GFP signals allowed detection of dendritic spines, and PSD-95 or GluR1 clusters were detected by immunostaining. Quantification of data is shown in (FIG. 4C) (***P<0.001 in Student's t-test). […] Summary graphs from four to six culture sets plotting normalized mEPSC frequency and mEPSC amplitude are shown beneath the traces. Scale bar, 5 μm.
as §2
Commercial Aβ-42 peptide was purchased from rPeptide (Bogart, Ga., USA). […]
as §3

all MARKs = settings: Nesic et al. (2010); cited from earlier work

In the case of CC(=O)N[C@@H](Cc1ccc(O)cc1)C(=O)NCC(=O)N[C@@H](CCCNC(=N)N)C(=O)N[C@@H](CCCCN)C(=O)N[C@@H](CCCCN)C(=O)N[C@@H](CCCNC(=N)N)C(=O)N[C@@H](CCCNC(=N)N)C(=O)N[C@@H](CCC(N)=O)C(=O)N[C@@H](CCCNC(=N)N)C(=O)N[C@@H](CCCNC(=N)N)C(=O)N[C@@H](CCCNC(=N)N)C(=O)NCC(=O)NCC(=O)N[C@@H](Cc1ccccc1)C(=O)N1CCC[C@H]1C(=O)N[C@@H](CC(C)C)C(=O)N[C@@H](CCCCN)C(=O)N[C@@H](CCCNC(=N)N)C(=O)N[C@@H](Cc1c[nH]cn1)C(=O)N[C@@H](CC(=O)O)C(=O)NCC(=O)N[C@H](C(=O)N[C@@H](CC(=O)O)C(=O)N[C@@H](CC(=O)O)C(=O)N[C@@H](CC(C)C)C(=O)N[C@@H](CO)C(=O)N[C@@H](CCCCN)C(=O)N[C@H](C(=O)NCC(N)=O)C(C)C)C(C)C [TAT-MKI] (Ac-YGRKKRRQRRRGGFPLKRHDGVDDLSKVG-NH2), the “MARK4-mediated tau phosphorylation in vitro” value (Human MARK4) is reported as “inhibited”.

For CC(=O)O[C@H]1C(=O)[C@@]2(C)[C@H]([C@H](OC(=O)c3ccccc3)[C@]3(O)C[C@H](OC(=O)[C@H](O)[C@@H](NC(=O)c4ccccc4)c4ccccc4)C(C)=C1C3(C)C)[C@]1(OC(C)=O)CO[C@@H]1C[C@@H]2O [taxol], the Aβ-induced spine loss (Aβ-induced spine loss) is given as “preventable”.

In the case of “MKI-EGFP: MKI cDNA subcloned into FHUGW lentivirus vector with a C-terminal EGFP tag, expressed in rat hippocampal neurons (FPLKRHDKVDDLSK; not fully specified (C-terminus))”, the “reduction of mEPSC frequency caused by Aβ” value (rat hippocampal neurons [1]; Aβ-treated neurons, held at −70 mV) is reported as “effectively rescued”, the “mEPSC amplitude in neurons expressing inhibitor alone” value (rat hippocampal neurons [1]; no Aβ (mock-treated)) is reported as “not amplitude” and the “mEPSC frequency in neurons expressing inhibitor alone” value (rat hippocampal neurons [1]; no Aβ (mock-treated)) is reported as “reduced mEPSC frequency”. The “MARK4-mediated phosphorylation of transfected human tau at the 12E8 sites” value ([2]; HA-tagged h-tau-WT in rat hippocampal neurons, immunostaining, FIG. 3B) was “effectively attenuated”, the “MARK4-mediated phosphorylation of endogenous tau at the 12E8 sites” value ([2]; expressed in rat hippocampal neurons, western blot, FIG. 3A) was “effectively attenuated” and the “phosphorylation of acetyl-CoA carboxylase (ACC) by AMP-activated kinase (AMPK)” value [3] was “did not affect”. The “MARK4 overexpression-induced reduction of GluR1 puncta density” value (rat hippocampal neurons [4]; FIG. 3E) was “effectively blocked”, the “MARK4 overexpression-induced reduction of PSD-95 puncta density” value (rat hippocampal neurons [4]; FIG. 3E) was “effectively blocked” and the “MARK4 overexpression-induced spine loss” value (rat hippocampal neurons [4]; co-expression in rat hippocampal neurons, FIGS. 3D and 3E) was “effectively blocked”. For the same compound, the “Aβ-caused reduction in the density of PSD-95 puncta” value (rat hippocampal neurons [5]; FIGS. 4A and 4C) was “effectively blocked”, the “Aβ-caused loss of dendritic spines” value (rat hippocampal neurons [5]; FIGS. 4A-4C) was “effectively blocked” and the “Aβ-caused reduction in the density of GluR1 puncta” value (rat hippocampal neurons [5]; FIGS. 4B and 4C) was “effectively blocked”.

For “MKI: peptide inhibitor (SEQ ID NO:1) derived from the CagA protein of Helicobacter pylori, binds substrate-binding sites of all MARKs (FPLKRHDKVDDLSK)”, the “Phosphorylation of tau at the PHF-1 site” value ([2]; rat hippocampal neurons, western blot, FIG. 3A) is given as “reduced” and the “binding to the substrate-binding sites of all MARKs” value (all MARKs) is given as “specifically bind with high affinity”.
